For 17 compounds, IC50 and inhibition results are on record in patent US10172868B2, “Substituted quinazolines for inhibiting kinase activity” (NeuPharma, Inc., priority 2013, dated 2019).

One test has as its system H1975 cells. As to the kind of experiment: Inhibition of cancer cell growth, MTT assay, H1975. The note with it: Homo sapiens, NCI-H1975, 72 h, read-out: IC50 in H1975 cells.
For a further test, the target named is EGFR (ErbB1) T790M L858R (Homo sapiens (Human), UniProt P00533, L858R/T790M). As to the kind of experiment: Z'-LYTE kinase inhibition assay, EGFR L858R/T790M. It counts as biochemical. Particulars: for inhibition at 0.0137 µM: read-out: % inhibition against EGFR L858R/T790M (Compound at 0.0137 μM). How it is done: Inhibitory activities of compounds against BTK, EGFR and EGFR mutants (EGFR L858R, EGFR T790M, EGFR L858R/T790M), FGFR1, FGFR2, JAK2, JAK3 and KDR were measured by Invitrogen using Z'-LYTE® Method as briefly described in the following. Test Compounds are screened in 1% DMSO (final) in the well. For 10 point titrations, 3-fold serial dilutions are conducted from the starting concentration. All ATP Solutions are diluted to a 4× working concentration in Kinase Buffer (50 mM HEPES pH 7.5, 0.01% BRIJ-35, 10 mM MgCl2, 1 mM EGTA). Peptide/Kinase Mixtures are diluted to a 2× working concentration in the appropriate Kinase Buffers as described below. (iv) Peptide/Kinase Mixtures for Measurement of EGFR (ErbB1) T790M L858R: The 2×EGFR (ErbB1) […] mixture is prepared in 50 mM HEPES pH 6.5, 0.01% BRIJ-35, 10 mM MgCl2, 1 mM EGTA, 0.02% NaN3. […] After the 1 hour Kinase Reaction incubation, 5 μL of a 1:64 dilution of Development Reagent B is added. Reaction starts by 30-second shaking of mixture consisting of 2.5 μL 4× test compound, […] 2× kinase reaction mixture and 2.5 μL 4×ATP Solution on Bar-coded Corning, low volume NBS, black 384-well plate (Corning Cat. #3676). Then the mixture is incubated for 60-minute at room temperature for the kinase reaction, followed by addition of 5 μL of a 1:1024 dilution of development reagent A and 30-second plate shake. The mixture is then incubated for another 60-minute at room temperature for development reaction. Finally fluorescence is read by plate reader. To determine IC50 of a compound against EGFR, EGFR mutant and other kinases, a series of concentrations of the compound were tested for the inhibition.
Sequence of EGFR (ErbB1) T790M L858R (P00533 25-1210 T790M/L858R): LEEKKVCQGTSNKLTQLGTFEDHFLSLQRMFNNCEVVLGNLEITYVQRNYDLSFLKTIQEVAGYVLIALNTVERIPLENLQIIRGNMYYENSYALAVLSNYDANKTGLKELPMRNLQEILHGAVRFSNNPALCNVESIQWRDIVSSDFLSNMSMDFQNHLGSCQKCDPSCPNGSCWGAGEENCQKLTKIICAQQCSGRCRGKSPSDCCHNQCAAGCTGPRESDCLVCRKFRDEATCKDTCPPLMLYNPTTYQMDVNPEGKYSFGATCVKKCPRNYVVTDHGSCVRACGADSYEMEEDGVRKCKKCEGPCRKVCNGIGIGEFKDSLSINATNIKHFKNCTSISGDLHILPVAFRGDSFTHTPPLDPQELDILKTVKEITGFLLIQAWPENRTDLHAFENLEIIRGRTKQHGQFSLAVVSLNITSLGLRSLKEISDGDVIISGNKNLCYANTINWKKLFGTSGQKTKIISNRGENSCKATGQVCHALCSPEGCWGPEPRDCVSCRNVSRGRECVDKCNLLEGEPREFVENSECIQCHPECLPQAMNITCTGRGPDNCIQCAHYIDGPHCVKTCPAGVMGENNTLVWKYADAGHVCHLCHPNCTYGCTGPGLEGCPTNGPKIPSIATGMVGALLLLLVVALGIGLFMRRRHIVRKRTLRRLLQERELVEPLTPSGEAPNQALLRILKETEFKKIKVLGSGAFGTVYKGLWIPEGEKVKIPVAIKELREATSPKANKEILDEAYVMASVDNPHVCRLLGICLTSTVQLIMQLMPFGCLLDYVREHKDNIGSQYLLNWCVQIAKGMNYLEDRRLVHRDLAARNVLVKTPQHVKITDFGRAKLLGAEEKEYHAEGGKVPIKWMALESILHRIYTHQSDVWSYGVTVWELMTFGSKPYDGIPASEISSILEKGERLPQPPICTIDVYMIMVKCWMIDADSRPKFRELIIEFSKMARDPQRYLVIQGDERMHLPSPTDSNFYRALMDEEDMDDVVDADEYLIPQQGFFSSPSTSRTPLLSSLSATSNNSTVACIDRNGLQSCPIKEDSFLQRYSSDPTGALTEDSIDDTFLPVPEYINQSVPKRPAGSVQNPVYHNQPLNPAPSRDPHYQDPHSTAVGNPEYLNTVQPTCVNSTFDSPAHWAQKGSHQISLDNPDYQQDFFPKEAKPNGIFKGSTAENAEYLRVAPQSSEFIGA

In another test the target is EGFR (ErbB1) (Homo sapiens (Human), UniProt P00533). Briefly: Z'-LYTE kinase inhibition assay, EGFR. It counts as biochemical. Particulars: read-out: % inhibition against EGFR (Compound at 0.041 μM). How it is done: Inhibitory activities of compounds against BTK, EGFR and EGFR mutants (EGFR L858R, EGFR T790M, EGFR L858R/T790M), FGFR1, FGFR2, JAK2, JAK3 and KDR were measured by Invitrogen using Z'-LYTE® Method as briefly described in the following. Test Compounds are screened in 1% DMSO (final) in the well. For 10 point titrations, 3-fold serial dilutions are conducted from the starting concentration. All ATP Solutions are diluted to a 4× working concentration in Kinase Buffer (50 mM HEPES pH 7.5, 0.01% BRIJ-35, 10 mM MgCl2, 1 mM EGTA). Peptide/Kinase Mixtures are diluted to a 2× working concentration in the appropriate Kinase Buffers as described below. (i) Peptide/Kinase Mixtures for Measurement of EGFR (ErbB1): The 2×EGFR (ErbB1)/[…] mixture is prepared in 50 mM HEPES pH 7.5, 0.01% BRIJ-35, 10 mM MgCl2. 4 mM MnCl2, 1 mM EGTA, 2 mM DTT. The final 10 μL Kinase Reaction consists of 1.1-5.25 ng EGFR (ErbB1) and 2 μM […] in 50 mM HEPES pH 7.5, 0.01% BRIJ-35, 10 mM MgCl2, 2 mM MnCl2. 1 mM EGTA, 1 mM DTT. After the 1 hour Kinase Reaction incubation, 5 μL of a 1:64 dilution of Development Reagent B is added. Reaction starts by 30-second shaking of mixture consisting of 2.5 μL 4× test compound, […] 2× kinase reaction mixture and 2.5 μL 4×ATP Solution on Bar-coded Corning, low volume NBS, black 384-well plate (Corning Cat. #3676). Then the mixture is incubated for 60-minute at room temperature for the kinase reaction, followed by addition of 5 μL of a 1:1024 dilution of development reagent A and 30-second plate shake. The mixture is then incubated for another 60-minute at room temperature for development reaction. Finally fluorescence is read by plate reader. To determine IC50 of a compound against EGFR, EGFR mutant and other kinases, a series of concentrations of the compound were tested for the inhibition.
Sequence of EGFR (ErbB1) (P00533 25-1210): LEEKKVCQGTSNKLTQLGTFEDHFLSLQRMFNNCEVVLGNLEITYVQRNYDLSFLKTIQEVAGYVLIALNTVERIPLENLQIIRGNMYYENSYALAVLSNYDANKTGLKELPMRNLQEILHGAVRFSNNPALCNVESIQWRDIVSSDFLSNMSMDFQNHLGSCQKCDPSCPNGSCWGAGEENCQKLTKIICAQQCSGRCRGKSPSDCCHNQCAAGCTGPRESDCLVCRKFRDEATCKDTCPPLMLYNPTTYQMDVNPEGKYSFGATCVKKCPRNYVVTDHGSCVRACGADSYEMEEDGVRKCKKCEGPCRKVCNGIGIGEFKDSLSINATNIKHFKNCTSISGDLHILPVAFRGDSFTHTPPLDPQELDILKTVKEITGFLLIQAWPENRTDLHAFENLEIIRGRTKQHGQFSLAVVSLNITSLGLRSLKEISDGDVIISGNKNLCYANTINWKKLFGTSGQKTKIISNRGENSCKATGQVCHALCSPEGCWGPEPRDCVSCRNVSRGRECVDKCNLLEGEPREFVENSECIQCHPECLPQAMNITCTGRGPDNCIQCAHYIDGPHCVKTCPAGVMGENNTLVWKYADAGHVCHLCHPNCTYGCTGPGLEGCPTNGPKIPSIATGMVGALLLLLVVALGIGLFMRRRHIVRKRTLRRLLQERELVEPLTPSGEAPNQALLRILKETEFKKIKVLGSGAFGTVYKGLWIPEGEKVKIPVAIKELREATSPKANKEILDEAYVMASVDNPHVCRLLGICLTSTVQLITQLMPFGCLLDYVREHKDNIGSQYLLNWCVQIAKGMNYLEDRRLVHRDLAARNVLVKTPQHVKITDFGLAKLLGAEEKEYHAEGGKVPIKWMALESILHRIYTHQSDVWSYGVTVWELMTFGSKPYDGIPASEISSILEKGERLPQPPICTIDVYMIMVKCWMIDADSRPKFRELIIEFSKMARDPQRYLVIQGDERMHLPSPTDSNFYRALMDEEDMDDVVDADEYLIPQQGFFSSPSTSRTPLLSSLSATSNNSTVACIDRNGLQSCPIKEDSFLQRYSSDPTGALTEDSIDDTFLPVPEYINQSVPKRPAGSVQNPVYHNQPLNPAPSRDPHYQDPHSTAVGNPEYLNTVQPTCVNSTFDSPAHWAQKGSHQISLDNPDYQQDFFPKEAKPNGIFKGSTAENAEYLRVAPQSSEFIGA

As for `C=CC(=O)Nc1cccc(-c2cccc3cnc(Nc4ccc(N5CCCOCC5)cc4)nc23)c1` [Example C102, N-(3-(2-((4-(1,4-oxazepan-4-yl)phenyl)amino)quinazolin-8-yl)phenyl)acrylamide], the IC50 with H1975 cells is less than 100 nM. Also, at EGFR (ErbB1) T790M L858R, the inhibition at 0.0137 µM was less than 50%. Further, the inhibition at 0.041 µM on EGFR (ErbB1) was less than 50%.

Take `C=CC(=O)Nc1cccc(-c2cccc3cnc(Nc4ccc(N5CCN(C)CC5)cc4C(=O)OC)nc23)c1` [Example C104, methyl 2-((8-(3-acrylamidophenyl)quinazolin-2-yl)amino)-5-(4-methylpiperazin-1-yl)benzoate]: the IC50 in the test with H1975 cells was greater than 500 nM. Moreover, the inhibition at 0.0137 µM at EGFR (ErbB1) T790M L858R was less than 50%. In addition, the inhibition at 0.041 µM at EGFR (ErbB1) is less than 50%.

With `C=CC(=O)Nc1ccc(F)c(-c2cccc3cnc(Nc4ccc(N5CCN(C)CC5)cc4)nc23)c1` [Example C067, N-(4-fluoro-3-(2-((4-(4-methylpiperazin-1-yl)phenyl)amino)quinazolin-8-yl)phenyl)acrylamide], the IC50 in the test on H1975 cells and on EGFR (ErbB1) T790M L858R (read-out: IC50 against EGFR L858R/T790M) was less than 100 nM in each case. At EGFR (ErbB1) T790M L858R, the inhibition at 0.0137 µM was greater than 50%. In addition, the inhibition at 0.041 µM at EGFR (ErbB1) is greater than 50%.

For the compound `C=CC(=O)Nc1cccc(-c2cccc3cnc(Nc4ccc(N5CCN(CC(N)=O)CC5)cc4F)nc23)c1` [Example C154, N-(3-(2-((4-(4-(2-amino-2-oxoethyl)piperazin-1-yl)-2-fluorophenyl)amino)quinazolin-8-yl)phenyl)acrylamide], the IC50 in the test on H1975 cells is 100 to 500 nM. Also, at EGFR (ErbB1) T790M L858R, the inhibition at 0.0137 µM is less than 50%. Moreover, the inhibition at 0.041 µM at EGFR (ErbB1) is less than 50%.

With `C=CC(=O)Nc1cccc(-c2cccc3cnc(Nc4c(F)cc(N5CCN(C)CC5)cc4F)nc23)c1` [Example C148, N-(3-(2-((2,6-difluoro-4-(4-methylpiperazin-1-yl)phenyl)amino)quinazolin-8-yl)phenyl)acrylamide], the IC50 in the test with H1975 cells is less than 100 nM. The inhibition at 0.0137 µM at EGFR (ErbB1) T790M L858R was less than 50%. Further, at EGFR (ErbB1), the inhibition at 0.041 µM is less than 50%.

Take `C=CC(=O)Nc1cccc(-c2cccc3cnc(Nc4ccc(N5CCOCC5=O)cc4)nc23)c1` [Example C095, N-(3-(2-((4-(3-oxomorpholino)phenyl)amino)quinazolin-8-yl)phenyl)acrylamide]: in the test on H1975 cells, the IC50 was in the range of 100 to 500 nM. For the same compound, the inhibition at 0.0137 µM at EGFR (ErbB1) T790M L858R is less than 50%. The inhibition at 0.041 µM on EGFR (ErbB1) is less than 50%.

As for `C=CC(=O)Nc1cccc(-c2cccc3cnc(Nc4cc(F)c(N5CCN(C)CC5)c(F)c4)nc23)c1` [Example C146, N-(3-(2-((3,5-difluoro-4-(4-methylpiperazin-1-yl)phenyl)amino)quinazolin-8-yl)phenyl)acrylamide], the IC50 in the test on H1975 cells was less than 100 nM. Besides, at EGFR (ErbB1) T790M L858R, the inhibition at 0.0137 µM was greater than 50%. Also, the inhibition at 0.041 µM on EGFR (ErbB1) is less than 50%.

`CC(=O)N1CCN(c2ccc(Nc3ncc4cccc(-c5cccc(NC(=O)/C=C/CN(C)C)c5)c4n3)cc2)CC1` [Example C050, (E)-N-(3-(2-((4-(4-acetylpiperazin-1-yl)phenyl)amino)quinazolin-8-yl)phenyl)-4-(dimethylamino)but-2-enamide]: the IC50 in the test with H1975 cells was greater than 500 nM. For the same compound, on EGFR (ErbB1) T790M L858R, the inhibition at 0.0137 µM was greater than 50%. In addition, at EGFR (ErbB1), the inhibition at 0.041 µM is less than 50%.

Take `C=CC(=O)Nc1cccc(-c2cccc3cnc(Nc4ccc(N5CCN(C)C(C(=O)O)C5)cc4)nc23)c1` (stereo not shown) [Example C090, 4-(4-((8-(3-acrylamidophenyl)quinazolin-2-yl)amino)phenyl)-1-methylpiperazine-2-carboxylic acid]: in the test on H1975 cells, the IC50 was 100 to 500 nM. Also, the inhibition at 0.0137 µM on EGFR (ErbB1) T790M L858R is greater than 50%. The inhibition at 0.041 µM on EGFR (ErbB1) was less than 50%.

In the case of `C=CC(=O)Nc1cccc(-c2cccc3cnc(Nc4ccc(N5CCN(S(C)(=O)=O)CC5)cc4)nc23)c1` [Example C092, N-(3-(2-((4-(4-(methylsulfonyl)piperazin-1-yl)phenyl)amino)quinazolin-8-yl)phenyl)acrylamide], the IC50 with H1975 cells was 100 to 500 nM. The inhibition at 0.0137 µM on EGFR (ErbB1) T790M L858R was less than 50%. In addition, on EGFR (ErbB1), the inhibition at 0.041 µM is less than 50%.

Consider `C=CC(=O)Nc1cccc(-c2cccc3cnc(Nc4ccc(N5CCN(C(=O)CO)CC5)cc4)nc23)c1` [Example C082, N-(3-(2-((4-(4-(2-hydroxyacetyl)piperazin-1-yl)phenyl)amino)quinazolin-8-yl)phenyl)acrylamide], for which, in the test on H1975 cells, the IC50 fell in the range of 100 to 500 nM. The inhibition at 0.0137 µM at EGFR (ErbB1) T790M L858R is greater than 50%. The inhibition at 0.041 µM on EGFR (ErbB1) is less than 50%.

Take `C=CC(=O)Nc1cccc(-c2cccc3cnc(Nc4ccc(NCC(F)F)cc4)nc23)c1` [Example C135, N-(3-(2-((4-((2,2-difluoroethyl)amino)phenyl)amino)quinazolin-8-yl)phenyl)acrylamide]: the IC50 in the test with H1975 cells is less than 100 nM. Also, on EGFR (ErbB1) T790M L858R, the inhibition at 0.0137 µM is less than 50%. Moreover, the inhibition at 0.041 µM on EGFR (ErbB1) is less than 50%.

As to `C=CC(=O)Nc1cccc(-c2cccc3cnc(Nc4ccc(N5CCN(C)CC5)cc4)nc23)c1C(=O)OC` [Example C101, methyl 2-acrylamido-6-(2-((4-(4-methylpiperazin-1-yl)phenyl)amino)quinazolin-8-yl)benzoate], the IC50 in the test on H1975 cells was less than 100 nM. Moreover, the inhibition at 0.0137 µM at EGFR (ErbB1) T790M L858R is greater than 50%. Further, the inhibition at 0.041 µM on EGFR (ErbB1) was less than 50%.

On to `CN(C)C/C=C/C(=O)Nc1cccc(-c2cccc3cnc(Nc4ccc(N5CCN(C)CC5)cc4)nc23)c1` [Example C052, (E)-4-(dimethylamino)-N-(3-(2-((4-(4-methylpiperazin-1-yl)phenyl)amino)quinazolin-8-yl)phenyl)but-2-enamide], for which, in the test on H1975 cells, the IC50 lay in the range of 100 to 500 nM. Also, the inhibition at 0.0137 µM at EGFR (ErbB1) T790M L858R is greater than 50%. Besides, the inhibition at 0.041 µM at EGFR (ErbB1) was less than 50%.

Turning to `C=CC(=O)Nc1cccc(-c2cccc3cnc(Nc4ccc(N5CCN(CC(C)(C)O)CC5)c(F)c4)nc23)c1` [Example C143, N-(3-(2-((3-fluoro-4-(4-(2-hydroxy-2-methylpropyl)piperazin-1-yl)phenyl)amino)quinazolin-8-yl)phenyl)acrylamide], the IC50 in the test on H1975 cells was less than 100 nM. Further, the inhibition at 0.0137 µM at EGFR (ErbB1) T790M L858R is greater than 50%. In addition, the inhibition at 0.041 µM at EGFR (ErbB1) is less than 50%.

For `C=CC(=O)Nc1cccc(-c2cccc3cnc(Nc4ccc(N5CCN(C(=O)OC)CC5)cc4)nc23)c1` [Example C076, methyl 4-(4-((8-(3-acrylamidophenyl)quinazolin-2-yl)amino)phenyl)piperazine-1-carboxylate], in the test with H1975 cells, the IC50 is greater than 500 nM. The inhibition at 0.0137 µM at EGFR (ErbB1) T790M L858R is less than 50%. For the same compound, the inhibition at 0.041 µM at EGFR (ErbB1) was less than 50%.

`C=CC(=O)Nc1cccc(-c2cccc3cnc(Nc4ccc(N5CCN(C(=O)CC)CC5)cc4)nc23)c1` [Example C084, N-(3-(2-((4-(4-propionylpiperazin-1-yl)phenyl)amino)quinazolin-8-yl)phenyl)acrylamide]: the IC50 with H1975 cells was 100 to 500 nM. For the same compound, the inhibition at 0.0137 µM on EGFR (ErbB1) T790M L858R is greater than 50%. Besides, the inhibition at 0.041 µM at EGFR (ErbB1) is less than 50%.
